Data taken from patent US12024531B2, “Immunoproteasome inhibitors” (Principia Biopharma Inc., priority 2017, dated 2024).

How the values were obtained:
[1] = target: constitutive proteasome β5c subunit (Homo sapiens, UniProt P28074); assay: Caliper-based proteasome enzymatic activity assay, β5c; type: biochemical; conditions: human recombinant constitutive proteasome 0.3 nM, FAM peptide substrate 1 μM, rt 3 h
[2] = target: immunoproteasome LMP7/B5i subunit (Homo sapiens, UniProt P28062); assay: Caliper-based proteasome enzymatic activity assay, LMP7; type: biochemical; conditions: human recombinant immunoproteasome 0.3 nM, FAM peptide substrate 1 μM, rt 3 h

SMILES	IC50 [1] [nM]	IC50 [2] [nM]
N#CC(=Cc1cccc(CCOC(=O)N[C@@H](Cc2ccccc2)B(O)O)c1)n1cncn1 [Example 99, (R)-(1-(((3-(2-cyano-2-(1H-1,2,4-triazol-1-yl)vinyl)phenethoxy)carbonyl)amino)-2-phenylethyl)boronic Acid]	1740	1.5
Cc1ccc(C[C@H](NC(=O)NCCc2cccc(C=C(C#N)n3cncn3)c2)B(O)O)cc1 [Example 107, (R)-(1-(3-(3-(2-cyano-2-(1H-1,2,4-triazol-1-yl)vinyl)phenethyl)ureido)-2-(p-tolyl)ethyl)boronic Acid]	> 5000	23
N#CC(=Cc1cccc(CCOC(=O)N[C@@H](CCc2ccccc2)B(O)O)c1)n1cncn1 [Example 106, (R)-(1-(((3-(2-cyano-2-(1H-1,2,4-triazol-1-yl)vinyl)phenethoxy)carbonyl)amino)-3-phenylpropyl)boronic Acid]	> 5000	4.8
CCN(CC)C(=O)C(C#N)=Cc1cc(C#N)cc(CCOC(=O)N[C@@H](Cc2ccccc2)B(O)O)c1 [Example 104, (R)-(1-(((3-cyano-5-(2-cyano-3-(diethylamino)-3-oxoprop-1-en-1-yl)phenethoxy)carbonyl)amino)-2-phenylethyl)boronic Acid]	2870	3.3
CC(C)(C)NC(=O)C(C#N)=Cc1cccc(CCC(=O)N[C@@H](Cc2ccccc2)B(O)O)c1 [Example 3, (R)-(1-(3-(3-(3-(tert-butylamino)-2-cyano-3-oxoprop-1-en-1-yl)phenyl)propanamido)-2-phenylethyl)boronic Acid]	120	10
CC(C)(C)C[C@H](NC(=O)CCOc1cccc(C=C(C#N)C(=O)NC(C)(C)C)c1)B(O)O [Example 13, (R)-1-(3-(3-(3-(tert-butylamino)-2-cyano-3-oxoprop-1-enyl)phenoxy)propanamido)-3,3-dimethylbutylboronic Acid]	3930	149
CCN(CC)C(=O)C(C#N)=Cc1ccc2c(c1)CN(CC(=O)N[C@@H](Cc1ccc(C)cc1)B(O)O)CC2 [Example 108, (R)-(1-(2-(7-(2-cyano-3-(diethylamino)-3-oxoprop-1-en-1-yl)-3,4-dihydroisoquinolin-2(1H)-yl)acetamido)-2-(p-tolyl)ethyl)boronic Acid]	> 5000	35
CCN(C(=O)C(C#N)=Cc1cc(C#N)cc(CCOC(=O)N[C@@H](Cc2ccc(C)cc2)B(O)O)c1)C1CCOCC1 [Example 103, (R)-(1-(((3-cyano-5-(2-cyano-3-(ethyl(tetrahydro-2H-pyran-4-yl)amino)-3-oxoprop-1-en-1-yl)phenethoxy)carbonyl)amino)-2-(p-tolyl)ethyl)boronic Acid]	460	1.4
CCN(C(=O)C(C#N)=Cc1cccc(CCNC(=O)N[C@@H](Cc2coc3ccccc23)B(O)O)c1)C1CCOCC1 [Example 100, (R)-(2-(benzofuran-3-yl)-1-(3-(3-(2-cyano-3-(ethyl(tetrahydro-2H-pyran-4-yl)amino)-3-oxoprop-1-en-1-yl)phenethyl)ureido)ethyl)boronic Acid]	1430	5.2
CC(C)NC(=O)C(C#N)=Cc1cccc(OCCC(=O)N[C@@H](Cc2ccccc2)B(O)O)c1 [Example 12, (R)-1-(3-(3-(2-cyano-3-(isopropylamino)-3-oxoprop-1-enyl)phenoxy)propanamido)-2-phenylethylboronic Acid]	100	4
CCN(C(=O)C(C#N)=Cc1cc(C#N)cc(CCOC(=O)N[C@@H](Cc2ccccc2)B(O)O)c1)C1CCOCC1 [Example 102, (R)-(1-(((3-cyano-5-(2-cyano-3-(ethyl(tetrahydro-2H-pyran-4-yl)amino)-3-oxoprop-1-en-1-yl)phenethoxy)carbonyl)amino)-2-phenylethyl)boronic Acid]	1550	2.2
CCN(CC)C(=O)C(C#N)=Cc1cccc(CCNC(=O)N[C@@H](Cc2coc3ccccc23)B(O)O)c1 [Example 96, (R)-(2-(benzofuran-3-yl)-1-(3-(3-(2-cyano-3-(diethylamino)-3-oxoprop-1-en-1-yl)phenethyl)ureido)ethyl)boronic Acid]	328	2.1
CCc1cccc(C[C@H](NC(=O)CCOc2cccc(C=C(C#N)C(=O)NC(C)(C)C)c2)B(O)O)c1 [Example 8, (R)-(1-(3-(3-(3-(tert-butylamino)-2-cyano-3-oxoprop-1-en-1-yl)phenoxy)propanamido)-2-(3-ethylphenyl)ethyl)boronic Acid]	420	16
CCN(C(=O)C(C#N)=Cc1cccc(CCOC(=O)N[C@@H](Cc2coc3ccccc23)B(O)O)c1)C1CCOCC1 [Example 95, (R)-(2-(benzofuran-3-yl)-1-(((3-(2-cyano-3-(ethyl(tetrahydro-2H-pyran-4-yl)amino)-3-oxoprop-1-en-1-yl)phenethoxy)carbonyl)amino)ethyl)boronic Acid]	87	1.2

Second part, the molecule after the results:

IC50 [1] [nM]	IC50 [2] [nM]	SMILES
71	0.5	C[C@@H]1COC[C@@H](C)N1C(=O)C(C#N)=Cc1cccc(CCOC(=O)N[C@@H](Cc2coc3ccccc23)B(O)O)c1 [Example 98, ((R)-2-(benzofuran-3-yl)-1-(((3-(2-cyano-3-((3R,5R)-3,5-dimethylmorpholino)-3-oxoprop-1-en-1-yl)phenethoxy)carbonyl)amino)ethyl)boronic Acid]
85	15	CC(C)(C)NC(=O)C(C#N)=Cc1ccc(F)c(OCCC(=O)N[C@@H](Cc2ccccc2)B(O)O)c1 [Example 18, (R)-(1-(3-(5-(3-(tert-butylamino)-2-cyano-3-oxoprop-1-en-1-yl)-2-fluorophenoxy)propanamido)-2-phenylethyl)boronic Acid]
21	1.6	CCN(C(=O)C(C#N)=Cc1ccc2c(c1)CN(CC(=O)N[C@@H](Cc1coc3ccccc13)B(O)O)CC2)C1CCOCC1 [Example 105, (R)-(2-(benzofuran-3-yl)-1-(2-(7-(2-cyano-3-(ethyl(tetrahydro-2H-pyran-4-yl)amino)-3-oxoprop-1-en-1-yl)-3,4-dihydroisoquinolin-2(1H)-yl)acetamido)ethyl)boronic Acid]
77	7.5	CCN(CC)C(=O)C(C#N)=Cc1ccc2c(c1)CN(CC(=O)N[C@@H](Cc1ccccc1)B(O)O)CC2 [Example 109, (R)-(1-(2-(7-(2-cyano-3-(diethylamino)-3-oxoprop-1-en-1-yl)-3,4-dihydroisoquinolin-2(1H)-yl)acetamido)-2-phenylethyl)boronic Acid]
32	6	CC(C)(C)NC(=O)C(C#N)=Cc1cccc(CC[C@H](NC(=O)c2cnccn2)C(=O)N[C@@H](Cc2ccccc2)B(O)O)c1 [Example 1, ((R)-1-((S)-4-(3-(3-(tert-butylamino)-2-cyano-3-oxoprop-1-en-1-yl)phenyl)-2-(pyrazine-2-carboxamido)butanamido)-2-phenylethyl)boronic Acid]
43	0.7	CCN(CC)C(=O)C(C#N)=Cc1cc(C#N)cc(CCOC(=O)N[C@@H](Cc2coc3ccccc23)B(O)O)c1 [Example 97, (R)-(2-(benzofuran-3-yl)-1-(((3-cyano-5-(2-cyano-3-(diethylamino)-3-oxoprop-1-en-1-yl)phenethoxy)carbonyl)amino)ethyl)boronic Acid]
